Values of other authors as cited in US7316771B2, “Medium for analytic and preparative electrophoresis” (Becton, Dickinson and Company, priority 2000, dated 2008).
Several values for one entry are separate records, joined by “and”; a condition that tells them apart may be missing. Equal values may be shown once.

conditions: substance used as acid in the medium

| pKa (Acid) | Structure (SMILES) |
| --- | --- |
| 4.5 | CC(C)C(=O)O [Isobutyric Acid] |
| 5.5 | O=C(O)c1ccccn1 [Picolinic Acid] |
| 11.8 | Oc1ccccn1 [2-Hydroxy-Pyridine] |
| 11.2 | Oc1ccncc1 [4-Hydroxy-Pyridine] |

same assay, conditions: substance used as acid in the medium; listed as 2-hydroxy pyridine

| pKa (Acid) | Structure (SMILES) |
| --- | --- |
| 11.6 | Oc1ccccn1 [2-Hydroxy-Pyridine] |

same assay, conditions: substance used as base in the medium

| pKa (Base) | Structure (SMILES) |
| --- | --- |
| 1.8 | C[N+](C)(C)CC(=O)O [Betaine] |
| 2.7 | CN(CC(=O)O)C(=N)N [Creatine] |
| 2.3 and 2.2 | CCC(N)C(=O)O (centres unmarked) [2-Amino Butyric Acid] |
| 3.1 | NC(=O)c1cccnc1 [Nicotinic Acid Amide] |
| 3.1 | NCC(=O)NCC(=O)O [Glycyl Glycine] |
| 4.8 | CN1CC(=O)NC1=N [Creatinine] |
